Tested on: Male C57BL/6J mice on a high-fat diet
Test: Antiobesity, dyslipidemia and diabetes improving effect in mouse fed with high-fat diet
Format: in vivo
Set-up: plasma leptin (mg/dL): unit not given here
Settings: for epididymal fat mass / gastrocnemius muscle weight (g/100 g body weight) / hepatocyte weight / mesenteric fat mass: Day 38
Method: Male C57BL/6J mice (CLEA Japan, Inc.) were bred from 5-week-old on a high-fat diet (D12451, research diet) while allowing free ingestion of both feed and water to prepare obesity mice. The mice were bred for acclimation for 2 weeks from 21-week-old. The body weight and plasma markers were measured when 23-week-old, the mice were divided into 6 groups (6 per group) such that the values thereof were uniform, and Reference Example 1 (0.01-0.1 mg/kg) or Reference Example 7 (1-3 mg/kg) was orally administered for 5 weeks. After 14 and 28 days, plasma levels of total cholesterol, neutral lipid, glucose, insulin, leptin, adiponectin and glycated hemoglobin were measured. On the last day, the mice were autopsied, and weights of mesenteric fat, epididymal fat, liver and gastrocnemius muscle were measured. The data of Table 18 show mean±standard deviation at n=5-6 (n is the number of samples).

Compound: Cn1ncc2c1-c1c(Oc3cccnc3)sc(C(N)=O)c1CC2 [Ref. Ex. 7, 1-methyl-8-(pyridin-3-yloxy)-4,5-dihydro-1H-thieno[3,4-g]indazole-6-carboxamide]
- average amount of ingestion (1 mg/kg oral): 3.6 ± 0.2 g/day
- body weight (g) change (1 mg/kg oral): 4.0 ± 1.5 g
- body weight (1 mg/kg oral, Day 0): 41.2 ± 1.8 g
- glycated hemoglobin (%) (1 mg/kg oral, Day 0): 4.4 ± 0.1%
- plasma adiponectin (μg/dL)) (1 mg/kg oral, Day 0): 18.3 ± 2.8 µg/dL
- plasma glucose (1 mg/kg oral, Day 0): 168.4 ± 29.1 mg/dL
- plasma insulin (1 mg/kg oral, Day 0): 5.3 ± 3.5 ng/mL
- plasma leptin (mg/dL) (1 mg/kg oral, Day 0): 61.4 ± 18.1
- plasma neutral fats (1 mg/kg oral, Day 0): 69.8 ± 35.0 mg/dL
- plasma total cholesterol (1 mg/kg oral, Day 0): 227.2 ± 21.2 mg/dL
- glycated hemoglobin (%) (1 mg/kg oral, Day 14): 4.2 ± 0.2%
- plasma adiponectin (μg/dL)) (1 mg/kg oral, Day 14): 14.9 ± 3.4 µg/dL
- plasma glucose (1 mg/kg oral, Day 14): 157.5 ± 19.4 mg/dL
- plasma insulin (1 mg/kg oral, Day 14): 7.8 ± 3.3 ng/mL
- plasma leptin (mg/dL) (1 mg/kg oral, Day 14): 86.9 ± 12.0
- plasma neutral fats (1 mg/kg oral, Day 14): 68.8 ± 16.0 mg/dL
- plasma total cholesterol (1 mg/kg oral, Day 14): 213.8 ± 13.0 mg/dL
- glycated hemoglobin (%) (1 mg/kg oral, Day 28): 4.0 ± 0.1%
- plasma adiponectin (μg/dL)) (1 mg/kg oral, Day 28): 12.2 ± 2.3 µg/dL
- plasma glucose (1 mg/kg oral, Day 28): 149.7 ± 16.9 mg/dL
- plasma insulin (1 mg/kg oral, Day 28): 12.3 ± 4.9 ng/mL
- plasma leptin (mg/dL) (1 mg/kg oral, Day 28): 96.1 ± 10.2
- plasma neutral fats (1 mg/kg oral, Day 28): 62.1 ± 26.1 mg/dL
- plasma total cholesterol (1 mg/kg oral, Day 28): 216.8 ± 20.7 mg/dL
- body weight (1 mg/kg oral, Day 37): 45.6 ± 3.0 g
- epididymal fat mass (1 mg/kg oral): 0.78 ± 0.11 g
- gastrocnemius muscle weight (g/100 g body weight) (1 mg/kg oral): 0.360 ± 0.014 g/100 g body weight
- hepatocyte weight (1 mg/kg oral): 1.85 ± 0.30 g
- mesenteric fat mass (1 mg/kg oral): 0.95 ± 0.14 g
- average amount of ingestion (3 mg/kg oral): 3.7 ± 0.2 g/day
- body weight (g) change (3 mg/kg oral): 2.3 ± 2.3 g
- body weight (3 mg/kg oral, Day 0): 41.1 ± 1.7 g
- glycated hemoglobin (%) (3 mg/kg oral, Day 0): 4.6 ± 0.1%
- plasma adiponectin (μg/dL)) (3 mg/kg oral, Day 0): 17.0 ± 2.9 µg/dL
- plasma glucose (3 mg/kg oral, Day 0): 176.9 ± 30.1 mg/dL
- plasma insulin (3 mg/kg oral, Day 0): 5.1 ± 2.3 ng/mL
- plasma leptin (mg/dL) (3 mg/kg oral, Day 0): 62.3 ± 10.9
- plasma neutral fats (3 mg/kg oral, Day 0): 71.6 ± 28.8 mg/dL
- plasma total cholesterol (3 mg/kg oral, Day 0): 231.9 ± 29.9 mg/dL
- glycated hemoglobin (%) (3 mg/kg oral, Day 14): 4.0 ± 0.3%
- plasma adiponectin (μg/dL)) (3 mg/kg oral, Day 14): 15.2 ± 3.0 µg/dL
- plasma glucose (3 mg/kg oral, Day 14): 172.8 ± 32.3 mg/dL
- plasma insulin (3 mg/kg oral, Day 14): 6.2 ± 3.0 ng/mL
- plasma leptin (mg/dL) (3 mg/kg oral, Day 14): 73.5 ± 12.6
- plasma neutral fats (3 mg/kg oral, Day 14): 47.0 ± 9.2 mg/dL
- plasma total cholesterol (3 mg/kg oral, Day 14): 192.8 ± 12.5 mg/dL
- glycated hemoglobin (%) (3 mg/kg oral, Day 28): 4.0 ± 0.2%
- plasma adiponectin (μg/dL)) (3 mg/kg oral, Day 28): 12.8 ± 0.8 µg/dL
- plasma glucose (3 mg/kg oral, Day 28): 155.9 ± 12.7 mg/dL
- plasma insulin (3 mg/kg oral, Day 28): 5.8 ± 1.4 ng/mL
- plasma leptin (mg/dL) (3 mg/kg oral, Day 28): 77.3 ± 16.3
- plasma neutral fats (3 mg/kg oral, Day 28): 53.6 ± 35.6 mg/dL
- plasma total cholesterol (3 mg/kg oral, Day 28): 194.1 ± 18.4 mg/dL
- body weight (3 mg/kg oral, Day 37): 44.0 ± 2.4 g
- epididymal fat mass (3 mg/kg oral): 0.77 ± 0.15 g
- gastrocnemius muscle weight (g/100 g body weight) (3 mg/kg oral): 0.375 ± 0.020 g/100 g body weight
- hepatocyte weight (3 mg/kg oral): 1.74 ± 0.30 g
- mesenteric fat mass (3 mg/kg oral): 0.77 ± 0.24 g
- body weight (in words) (obese mouse model fed with a high-fat diet): clear body weight decreasing action
